US11192863B2, “Antiviral compounds and methods” (Biotron Limited, priority 2003, dated 2021)
Structures can show the parent of a compound that is named as a salt. Where two headings read alike, the source gives them in different places.

What was measured:
[1] = molecular target: SARS E protein ion channel (Severe acute respiratory syndrome coronavirus, UniProt P59637); type: biochemical, SARS-CoV
[2] = molecular target: SARS-CoV E protein (Severe acute respiratory syndrome coronavirus, UniProt P59637); type: cell-based
[3] = molecular target: Vpu protein (Human immunodeficiency virus type 1 group M subtype B, UniProt P05919); conditions: for Vpu Inhibition (score/# of times tested): halo of growth score between zero and six, XL1-blue E. coli with pPL-Vpu, no adenine, 37° C.
[4] = tested on: MHV (strain MHV-A59); conditions: L929 cells
[5] = tested on: HIV; type: cell-based
[6] = tested on: bovine coronavirus (BCV); assay: BCV plaque assay in MDBK cells; type: cell-based; conditions: Betacoronavirus 1; BCV plaques in MDBK cells
[7] = molecular target: 229E-CoV E-protein (Human coronavirus 229E, UniProt P19741); assay: Bacterial bio-assay for 229E-CoV E-protein; conditions: halo of growth score; E. coli expressing E protein at 37° C.
[8] = tested on: human coronavirus OC43; assay: microbe, parasite or virus in culture; type: cell-based; conditions: Betacoronavirus 1, OC43, MRC5, 120 h, MRC-5 cells, 5 days post infection
[9] = tested on: Dengue 1 strain Hawaii; assay: Dengue cytoproliferation assay in LLC-MK2 cells (Alamar Blue); type: cell-based, Dengue virus; conditions: 7 days

| Structure (SMILES) | % Reduction of average current by 100 μM [1] | SARS E protein Inhibition (score/# of times tested) [2] | Vpu Inhibition (score/# of times tested) [3] | Percent reduction in Plaque number/# experiments ([4]; 1 uM) | Percent reduction in Plaque number/# experiments ([4]; 10 uM) | Percent reduction in Plaque number/# experiments ([4]; 20 uM) | 229E E protein Inhibition (score) [7] | inhibition at 2.5 µM [8] | other results |
| --- | --- | --- | --- | --- | --- | --- | --- | --- | --- |
| N/C(=N\C(=O)c1nc(Cl)c(N)nc1N)NCc1ccc(Cl)cc1Cl [2′4 DichloroBenzamil HCl] | 78 ± 0% | 3.00/2 score | 1.7/2 score | 0/3% | 0/3% | 12/2% | – | – | – |
| N=C(N)NC(=O)c1ccc(-c2ccccc2)cc1 [4-phenylbenzoylguanidine] | – | 0.63/2 score | 2.75/5 score | 5/1% | 24/1% | 32/1% | 2.3 score | – | Percent of Positive Control ([5]; Drug Conc. 0.625 μM): 10%; Percent of Positive Control ([5]; Drug Conc. 1.25 μM): 216%; Percent of Positive Control ([5]; Drug Conc. 2.5 μM): 9%; Percent of Positive Control ([5]; Drug Conc. 5 μM): 4%; Percent of Positive Control ([5]; Drug Conc. 10 μM): 26%; At least 1x log reduction seen in p24 assay? ([5]; Table 19b, yes/no): no; EC50 [6]: 190 µM; Bacterial assay rank order ([3]; Table 19a, rank among 12 compounds, 1 = highest score): 7; Bacterial assay rank order ([3]; Table 19b): 7; Vpu Bacterial score ([3]; Table 19b): 2.8 |
| N=C(N)NC(=O)/C=C/c1ccccc1Br [(2-Bromocinnamoyl)guanidine] | 88 ± 6% | 2.47/3 score | 3.7/2 score | 52/3% | 89/3% | 91/2% | 0.9 score | – | – |
| N=C(N)NC(=O)/C=C/c1ccccc1Cl [(2-Chlorocinnamoyl)guanidine] | – | 3.1/3 score | 4.0/4 score | 53/3% | 88/3% | 95/2% | 0.1 score | 96% | Antiviral Percent of Negative Control ([9]; Drug Conc. 0.625 μM): 64.3%; Antiviral Percent of Negative Control ([9]; Drug Conc. 1.25 μM): 52.5%; Antiviral Percent of Negative Control ([9]; Drug Conc. 2.5 μM): 22.7%; Antiviral Percent of Negative Control ([9]; Drug Conc. 5 μM): 7.7%; Antiviral Percent of Negative Control ([9]; Drug Conc. 10 μM): 8.4% |
| NC(N)=NC(=O)/C=C/c1ccc(Br)cc1 [(4-Bromocinnamoyl)guanidine] | – | 1.69/2 score | 2.5/4 score | 52/3% | 98/3% | – | 2.0 score | 29% | Toxic (noted in place of plaque reduction) ([4]; 20 uM): Toxic/2 |
| NC(N)=NC(=O)/C=C/c1ccc(Cl)cc1 [(4-Chlorocinnamoyl)guanidine] | – | 1.94/2 score | 2.7/5 score | 43/3% | 88/2% | 97/2% | 1.4 score | 36% | – |
| O=C(CCc1ccccc1)NC(=Nc1ccccc1)NC(=O)CCc1ccccc1 [N,N′-bis(3phenylpropanoyl)-N″-phenylguanidine] | 88 ± 6% | 1.33/3 score | 2.25/3 score | 1/3% | 40/4% | 67/3% | 0.1 score | – | – |
